{"source": "paper PMC5097156", "about": "“Potent and selective chemical probe of hypoxic signalling downstream of HIF-α hydroxylation via VHL inhibition” (Nature Communications, 2016)", "assay_in_all_cases": "biochemical", "set-up_in_all_cases": "CEREP ExpresSProfile competition binding, remaining control specific binding of reference compound", "conditions_in_all_cases": "radioligand binding; read-out: Mean % of control specific binding (±sd)", "key": {"dopamine transporter (h)": {"target": "T1, dopamine transporter (h) (Homo sapiens, UniProt Q01959)", "T1 construct": "gene SLC6A3"}, "5-HT3 (h)": {"target": "T2, 5-HT3 (h) (Homo sapiens, UniProt P46098)", "T2 construct": "gene HTR3A"}, "A3 (h)": {"target": "T3, A3 (h) (Homo sapiens, UniProt P0DMS8)", "T3 construct": "gene ADORA3", "T3 sequence (P0DMS8 whole entry)": "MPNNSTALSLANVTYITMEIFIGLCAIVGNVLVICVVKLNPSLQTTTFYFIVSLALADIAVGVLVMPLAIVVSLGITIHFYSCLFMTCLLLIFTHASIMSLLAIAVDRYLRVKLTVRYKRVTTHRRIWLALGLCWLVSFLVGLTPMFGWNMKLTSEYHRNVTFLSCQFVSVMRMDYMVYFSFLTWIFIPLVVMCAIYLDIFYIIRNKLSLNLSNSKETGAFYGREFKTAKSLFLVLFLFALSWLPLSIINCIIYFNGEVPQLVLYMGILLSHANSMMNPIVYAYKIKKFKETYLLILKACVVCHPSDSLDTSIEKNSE"}, "CXCR2 (IL-8B) (h)": {"target": "CXCR2 (IL-8B) (h) (Homo sapiens, UniProt P25025)"}, "Y1 (h)": {"target": "T4, Y1 (h) (Homo sapiens, UniProt P25929)", "T4 construct": "gene NPY1R", "T4 sequence (P25929 whole entry)": "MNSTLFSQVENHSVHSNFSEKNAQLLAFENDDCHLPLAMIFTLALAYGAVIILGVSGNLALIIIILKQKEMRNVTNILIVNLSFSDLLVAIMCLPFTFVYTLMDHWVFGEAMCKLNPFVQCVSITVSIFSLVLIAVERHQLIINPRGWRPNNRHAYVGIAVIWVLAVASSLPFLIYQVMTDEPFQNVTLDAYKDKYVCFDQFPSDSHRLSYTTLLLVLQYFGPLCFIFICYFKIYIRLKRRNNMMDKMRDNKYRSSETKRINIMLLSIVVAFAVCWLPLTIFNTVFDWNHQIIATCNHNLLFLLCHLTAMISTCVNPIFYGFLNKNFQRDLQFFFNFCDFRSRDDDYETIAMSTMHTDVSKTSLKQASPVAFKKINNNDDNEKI"}, "M1 (h)": {"target": "T5, M1 (h) (Homo sapiens, UniProt P11229)", "T5 construct": "gene CHRM1"}, "MT1 (ML1A) (h)": {"target": "T6, MT1 (ML1A) (h) (Homo sapiens, UniProt P48039)", "T6 construct": "gene MTNR1A", "T6 sequence (P48039 whole entry)": "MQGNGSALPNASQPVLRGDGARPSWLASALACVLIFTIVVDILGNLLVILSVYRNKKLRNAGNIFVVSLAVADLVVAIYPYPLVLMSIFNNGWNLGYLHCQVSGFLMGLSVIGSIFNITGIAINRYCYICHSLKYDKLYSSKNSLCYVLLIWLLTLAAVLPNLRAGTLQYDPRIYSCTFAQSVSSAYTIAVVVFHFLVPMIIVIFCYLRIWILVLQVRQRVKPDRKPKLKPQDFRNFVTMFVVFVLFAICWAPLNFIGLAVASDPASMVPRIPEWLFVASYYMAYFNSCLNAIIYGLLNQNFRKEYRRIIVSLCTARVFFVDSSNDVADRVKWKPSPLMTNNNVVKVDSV"}, "D1 (h)": {"target": "T7, D1 (h) (Homo sapiens, UniProt P21728)", "T7 construct": "gene DRD1", "T7 sequence (P21728 whole entry)": "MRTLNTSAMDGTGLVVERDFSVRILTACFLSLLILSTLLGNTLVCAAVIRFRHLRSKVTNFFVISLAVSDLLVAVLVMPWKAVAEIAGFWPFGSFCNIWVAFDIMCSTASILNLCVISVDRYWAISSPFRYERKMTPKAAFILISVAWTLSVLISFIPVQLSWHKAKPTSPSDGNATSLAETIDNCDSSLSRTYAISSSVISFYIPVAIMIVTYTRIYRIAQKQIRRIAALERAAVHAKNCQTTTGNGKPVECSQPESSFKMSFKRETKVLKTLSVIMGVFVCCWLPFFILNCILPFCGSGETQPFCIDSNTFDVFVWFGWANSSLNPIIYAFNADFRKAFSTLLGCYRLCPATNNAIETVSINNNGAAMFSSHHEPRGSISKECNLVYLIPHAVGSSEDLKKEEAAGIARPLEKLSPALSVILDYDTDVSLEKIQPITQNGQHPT"}, "H2 (h)": {"target": "T8, H2 (h) (Homo sapiens, UniProt P25021)", "T8 construct": "gene HRH2", "T8 sequence (P25021 whole entry)": "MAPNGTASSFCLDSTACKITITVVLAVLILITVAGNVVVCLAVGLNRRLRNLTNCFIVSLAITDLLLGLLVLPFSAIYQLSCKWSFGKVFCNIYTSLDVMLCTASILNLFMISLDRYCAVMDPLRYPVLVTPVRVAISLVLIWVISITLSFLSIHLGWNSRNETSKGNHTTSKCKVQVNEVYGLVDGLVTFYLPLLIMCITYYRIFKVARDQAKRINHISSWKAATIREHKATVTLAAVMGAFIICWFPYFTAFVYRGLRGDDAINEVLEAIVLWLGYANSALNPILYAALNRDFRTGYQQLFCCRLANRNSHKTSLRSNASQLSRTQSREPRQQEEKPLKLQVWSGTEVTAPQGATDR"}, "GAL2 (h)": {"target": "T9, GAL2 (h) (Homo sapiens, UniProt O43603)", "T9 construct": "gene GALR2", "T9 sequence (O43603 whole entry)": "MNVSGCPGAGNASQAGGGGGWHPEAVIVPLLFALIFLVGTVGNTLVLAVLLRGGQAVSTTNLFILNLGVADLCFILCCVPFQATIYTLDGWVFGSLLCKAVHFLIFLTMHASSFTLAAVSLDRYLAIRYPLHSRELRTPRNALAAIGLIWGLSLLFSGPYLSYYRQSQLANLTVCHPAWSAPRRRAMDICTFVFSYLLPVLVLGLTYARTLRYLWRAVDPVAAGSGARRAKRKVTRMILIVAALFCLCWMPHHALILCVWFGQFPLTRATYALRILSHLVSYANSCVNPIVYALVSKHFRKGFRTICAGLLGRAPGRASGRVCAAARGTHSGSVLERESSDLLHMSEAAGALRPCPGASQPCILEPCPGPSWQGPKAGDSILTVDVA"}, "Y2 (h)": {"target": "T10, Y2 (h) (Homo sapiens, UniProt P49146)", "T10 construct": "gene NPY2R", "T10 sequence (P49146 whole entry)": "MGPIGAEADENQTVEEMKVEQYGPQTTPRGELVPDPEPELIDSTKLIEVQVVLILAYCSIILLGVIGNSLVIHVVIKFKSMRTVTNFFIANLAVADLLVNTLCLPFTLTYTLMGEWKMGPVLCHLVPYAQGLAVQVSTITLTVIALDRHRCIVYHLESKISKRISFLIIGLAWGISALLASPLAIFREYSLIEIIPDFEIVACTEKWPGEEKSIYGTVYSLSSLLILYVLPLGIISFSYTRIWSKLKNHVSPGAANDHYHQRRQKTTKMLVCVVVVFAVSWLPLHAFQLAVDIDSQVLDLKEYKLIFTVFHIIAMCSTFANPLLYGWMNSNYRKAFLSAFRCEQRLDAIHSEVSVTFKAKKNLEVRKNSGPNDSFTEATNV"}, "D2S (h)": {"target": "T11, D2S (h) (Homo sapiens, UniProt P14416)", "T11 construct": "gene DRD2; D2S short isoform", "T11 sequence (P14416 whole entry, canonical isoform)": "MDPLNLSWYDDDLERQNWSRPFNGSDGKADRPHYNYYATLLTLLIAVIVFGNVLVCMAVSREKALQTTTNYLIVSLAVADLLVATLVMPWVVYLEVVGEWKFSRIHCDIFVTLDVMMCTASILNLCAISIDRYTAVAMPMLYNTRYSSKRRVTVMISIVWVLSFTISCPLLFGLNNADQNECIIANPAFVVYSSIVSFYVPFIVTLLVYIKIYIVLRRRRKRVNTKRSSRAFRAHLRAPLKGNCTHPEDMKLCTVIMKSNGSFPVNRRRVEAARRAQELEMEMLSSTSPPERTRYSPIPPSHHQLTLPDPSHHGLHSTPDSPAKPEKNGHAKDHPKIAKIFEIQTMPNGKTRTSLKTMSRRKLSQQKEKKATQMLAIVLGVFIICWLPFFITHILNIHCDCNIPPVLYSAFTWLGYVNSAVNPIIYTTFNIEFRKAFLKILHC"}, "[1]": {"target": "T12, norepinephrine transporter (h) (Homo sapiens, UniProt P23975)", "T12 construct": "gene SLC6A2"}, "EP4 (h)": {"target": "T13, EP4 (h) (Homo sapiens, UniProt P35408)", "T13 construct": "gene PTGER4"}, "H1 (h)": {"target": "T14, H1 (h) (Homo sapiens, UniProt P35367)", "T14 construct": "gene HRH1"}, "5-HT1A (h)": {"target": "T15, 5-HT1A (h) (Homo sapiens, UniProt P08908)", "T15 construct": "gene HTR1A", "T15 sequence (P08908 whole entry)": "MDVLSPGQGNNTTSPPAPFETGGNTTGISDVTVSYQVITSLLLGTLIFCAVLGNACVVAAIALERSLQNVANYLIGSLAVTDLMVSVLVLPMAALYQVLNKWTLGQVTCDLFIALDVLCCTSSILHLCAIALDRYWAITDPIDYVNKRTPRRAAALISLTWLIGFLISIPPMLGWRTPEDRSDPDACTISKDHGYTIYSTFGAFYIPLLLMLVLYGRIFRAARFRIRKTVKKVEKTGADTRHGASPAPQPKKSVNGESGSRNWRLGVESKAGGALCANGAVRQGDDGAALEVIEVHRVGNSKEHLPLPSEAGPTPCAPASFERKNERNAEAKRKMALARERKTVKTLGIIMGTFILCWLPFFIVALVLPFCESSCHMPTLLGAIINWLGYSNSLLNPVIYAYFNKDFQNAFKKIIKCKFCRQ"}, "5-HT transporter (h)": {"target": "T16, 5-HT transporter (h) (Homo sapiens, UniProt P31645)", "T16 construct": "gene SLC6A4"}, "NK2 (h)": {"target": "T17, NK2 (h) (Homo sapiens, UniProt P21452)", "T17 construct": "gene TACR2"}, "M2 (h)": {"target": "T18, M2 (h) (Homo sapiens, UniProt P08172)", "T18 construct": "gene CHRM2"}, "VPAC1 (VIP1) (h)": {"target": "T19, VPAC1 (VIP1) (h) (Homo sapiens, UniProt P32241)", "T19 construct": "gene VIPR1", "T19 sequence (P32241 whole entry)": "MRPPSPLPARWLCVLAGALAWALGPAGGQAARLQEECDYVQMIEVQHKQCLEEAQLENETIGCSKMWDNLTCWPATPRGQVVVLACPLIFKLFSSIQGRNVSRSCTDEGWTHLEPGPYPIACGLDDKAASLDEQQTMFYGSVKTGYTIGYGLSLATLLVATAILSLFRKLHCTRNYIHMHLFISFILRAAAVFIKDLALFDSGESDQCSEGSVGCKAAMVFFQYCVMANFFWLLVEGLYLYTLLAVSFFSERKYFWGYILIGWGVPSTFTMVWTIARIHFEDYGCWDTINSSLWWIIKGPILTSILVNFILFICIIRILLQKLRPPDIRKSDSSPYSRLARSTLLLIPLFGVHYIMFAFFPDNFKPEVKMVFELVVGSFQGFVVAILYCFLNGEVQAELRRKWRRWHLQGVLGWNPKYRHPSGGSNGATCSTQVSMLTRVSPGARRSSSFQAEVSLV"}, "5-HT5a (h)": {"target": "T20, 5-HT5a (h) (Homo sapiens, UniProt P47898)", "T20 construct": "gene HTR5A"}, "5-HT1B": {"target": "T21, 5-HT1B (Rattus norvegicus, UniProt P28564)", "T21 construct": "gene Htr1b; rat cerebral cortex", "T21 sequence (P28564 whole entry)": "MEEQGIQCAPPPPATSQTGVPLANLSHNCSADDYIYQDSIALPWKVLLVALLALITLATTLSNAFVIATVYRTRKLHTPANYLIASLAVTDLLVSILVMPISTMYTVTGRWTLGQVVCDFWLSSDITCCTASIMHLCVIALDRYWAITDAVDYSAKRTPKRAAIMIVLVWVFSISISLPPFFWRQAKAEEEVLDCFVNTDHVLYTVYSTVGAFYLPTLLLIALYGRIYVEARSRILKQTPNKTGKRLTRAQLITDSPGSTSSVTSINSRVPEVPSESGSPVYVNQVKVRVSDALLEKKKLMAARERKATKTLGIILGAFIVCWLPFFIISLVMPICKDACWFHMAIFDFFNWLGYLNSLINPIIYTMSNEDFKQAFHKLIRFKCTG"}, "MC4 (h)": {"target": "T22, MC4 (h) (Homo sapiens, UniProt P32245)", "T22 construct": "gene MC4R", "T22 sequence (P32245 whole entry)": "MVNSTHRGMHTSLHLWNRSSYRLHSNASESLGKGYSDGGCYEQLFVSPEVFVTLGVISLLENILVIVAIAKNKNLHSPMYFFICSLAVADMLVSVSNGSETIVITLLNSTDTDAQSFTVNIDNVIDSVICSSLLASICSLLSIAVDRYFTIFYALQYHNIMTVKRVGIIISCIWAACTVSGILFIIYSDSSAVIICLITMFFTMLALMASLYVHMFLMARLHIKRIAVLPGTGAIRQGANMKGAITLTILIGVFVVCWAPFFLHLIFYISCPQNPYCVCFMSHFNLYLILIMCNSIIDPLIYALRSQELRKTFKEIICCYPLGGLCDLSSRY"}, "beta 1 (h)": {"target": "T23, beta 1 (h) (Homo sapiens, UniProt P08588)", "T23 construct": "gene ADRB1"}, "B2 (h)": {"target": "T24, B2 (h) (Homo sapiens, UniProt P30411)", "T24 construct": "gene BDKRB2"}}, "data": [{"smiles": "Cc1ncsc1-c1ccc(CNC(=O)[C@@H]2C[C@@H](O)CN2C(=O)[C@@H](NC(=O)C2(C#N)CC2)C(C)(C)C)cc1", "note": "[VH298]", "values": [{"measurement": "remaining binding at 50 µM", "setting": "dopamine transporter (h)", "value": 90, "unit": "%"}, {"measurement": "remaining binding at 50 µM", "setting": "5-HT3 (h)", "value": 92, "unit": "%"}, {"measurement": "remaining binding at 50 µM", "setting": "A3 (h)", "value": 55, "unit": "%"}, {"measurement": "remaining binding at 50 µM", "setting": "CXCR2 (IL-8B) (h)", "value": 102, "unit": "%"}, {"measurement": "remaining binding at 50 µM", "setting": "Y1 (h)", "value": 106, "unit": "%"}, {"measurement": "remaining binding at 50 µM", "setting": "M1 (h)", "value": 94, "unit": "%"}, {"measurement": "remaining binding at 50 µM", "setting": "MT1 (ML1A) (h)", "value": 75, "unit": "%"}, {"measurement": "remaining binding at 50 µM", "setting": "D1 (h)", "value": 103, "unit": "%"}, {"measurement": "remaining binding at 50 µM", "setting": "H2 (h)", "value": 140, "unit": "%"}, {"measurement": "remaining binding at 50 µM", "setting": "GAL2 (h)", "value": 87, "unit": "%"}, {"measurement": "remaining binding at 50 µM", "setting": "Y2 (h)", "value": 97, "unit": "%"}, {"measurement": "remaining binding at 50 µM", "setting": "D2S (h)", "value": 91, "unit": "%"}, {"measurement": "remaining binding at 50 µM", "setting": "[1]", "value": 96, "unit": "%"}, {"measurement": "remaining binding at 50 µM", "setting": "EP4 (h)", "value": 95, "unit": "%"}, {"measurement": "remaining binding at 50 µM", "setting": "H1 (h)", "value": 101, "unit": "%"}, {"measurement": "remaining binding at 50 µM", "setting": "5-HT1A (h)", "value": 82, "unit": "%"}, {"measurement": "remaining binding at 50 µM", "setting": "5-HT transporter (h)", "value": 92, "unit": "%"}, {"measurement": "remaining binding at 50 µM", "setting": "NK2 (h)", "value": 73, "unit": "%"}, {"measurement": "remaining binding at 50 µM", "setting": "M2 (h)", "value": 94, "unit": "%"}, {"measurement": "remaining binding at 50 µM", "setting": "VPAC1 (VIP1) (h)", "value": 85, "unit": "%"}, {"measurement": "remaining binding at 50 µM", "setting": "5-HT5a (h)", "value": 105, "unit": "%"}, {"measurement": "remaining binding at 50 µM", "setting": "5-HT1B", "value": 117, "unit": "%"}, {"measurement": "remaining binding at 50 µM", "setting": "MC4 (h)", "value": 98, "unit": "%"}, {"measurement": "remaining binding at 50 µM", "setting": "beta 1 (h)", "value": 83, "unit": "%"}, {"measurement": "remaining binding at 50 µM", "setting": "B2 (h)", "value": 101, "unit": "%"}]}]}
